Source: patent US20100016232A1, “Treatment Of Inflammatory Diseases With Mammal Beta Defensins” (Novozymes A/S, priority 2008, published 2010)
Where no end group is shown, it is not given here.

How the values were obtained:
[1] = system: TNF production from human peripheral blood mononuclear cells (PBMC); experiment: TNF production from human PBMC, Cytometric Bead Array; format: cell-based
Procedure: (§1) Peripheral blood was drawn from healthy volunteers (with approval from the relevant ethical committee in Denmark). Heparinized blood was diluted 1/1 v/v with RPMI and were subjected to Ficoll density centrifugation within 2 h of drawing. Plasma was collected from the top from individual donors and was kept on ice until it was used at 2% in the culture medium (autologous culture medium). Isolated PBMC were resuspended in autologous culture medium and seeded in 96-well culture plates with 255.000 cells per well in a total of 200 μl. […] The concentrations used for stimulation were optimized on 3 different donors in initial experiments, for LPS two different concentrations were used to be sure to be on a cytokine level that is possible to modulate. In some experiments PBMC were treated with Dexamethason and Indomethacin alone and together with LPS or LTA as a control on downregulation of inflammatory cytokines. The supernatants were collected after incubation at 37° C. for 24 hours, and stored at −80° C. until cytokine measurement. Viability was measured by Alamar Blue (Biosource, DALL 1100) in all experiments and in some cases also by MTS (Promega) according to manufacturer's instruction and was in some experiments also judged by counting of the cells by a Nucleocounter.
(§2) Cytokine production in supernatants was measured by flow cytometry with a human inflammation cytometric bead array (CBA) according to manufacturer's instructions (BD) on a FACSarray flow cytometer. The following cytokines were measured: IL-8, IL-1β, IL-10, TNF, IL-12 p70, IL-6. In some experiments, cytokines were measured by ELISA kits from R&D systems (IL-10, TNF-α, IL-1β) according to the manufacturer' instruction.

[2] = system: IL-1β production from human peripheral blood mononuclear cells (PBMC); experiment: IL-1β production from human PBMC, Cytometric Bead Array; format: cell-based
Procedure: as §1, §2

[3] = system: IL-10 production from human peripheral blood mononuclear cells (PBMC); experiment: IL-10 production from human PBMC, Cytometric Bead Array; format: cell-based
Procedure: as §1, §2

PBMC = PBMC viability, Alamar Blue; format: cell-based, human; details: human PBMC, Example 2
Procedure: as §1

[4] = LPS 0.6 ng/ml, test compound 1 μg/ml, Table 16
[5] = LPS 0.6 ng/ml, test compound 10 μg/ml, Table 16
[6] = LPS 0.6 ng/ml, test compound 40 μg/ml, Table 16
[7] = LPS 20 ng/ml, test compound 1 μg/ml, Table 16
[8] = LPS 20 ng/ml, test compound 10 μg/ml, Table 16
[9] = LPS 20 ng/ml, test compound 40 μg/ml, Table 16
[10] = Medium, test compound 1 μg/ml, Table 16
[11] = Medium, test compound 10 μg/ml, Table 16
[12] = Medium, test compound 40 μg/ml, Table 16
[13] = LPS 0.6 ng/ml, test compound 1 μg/ml, Table 18
[14] = LPS 0.6 ng/ml, test compound 10 μg/ml, Table 18
[15] = LPS 0.6 ng/ml, test compound 40 μg/ml, Table 18
[16] = LPS 20 ng/ml, test compound 1 μg/ml, Table 18
[17] = LPS 20 ng/ml, test compound 10 μg/ml, Table 18
[18] = LPS 20 ng/ml, test compound 40 μg/ml, Table 18
[19] = Medium, test compound 1 μg/ml, Table 18
[20] = Medium, test compound 10 μg/ml, Table 18
[21] = Medium, test compound 40 μg/ml, Table 18
[22] = LPS 0.6 ng/ml, test compound 1 μg/ml, Table 17
[23] = LPS 0.6 ng/ml, test compound 10 μg/ml, Table 17
[24] = LPS 0.6 ng/ml, test compound 40 μg/ml, Table 17
[25] = LPS 20 ng/ml, test compound 1 μg/ml, Table 17
[26] = LPS 20 ng/ml, test compound 10 μg/ml, Table 17
[27] = LPS 20 ng/ml, test compound 40 μg/ml, Table 17
[28] = Medium, test compound 1 μg/ml, Table 17
[29] = Medium, test compound 10 μg/ml, Table 17
[30] = Medium, test compound 40 μg/ml, Table 17

COc1ccc2c(c1)c(CC(=O)O)c(C)n2C(=O)c1ccc(Cl)cc1 [Indomethacin, reference compound]
IL-1β ([2]; LPS 0.6 ng/ml, Indomethacin 0.72 ug/ml, Table 13): 3100 pg/mL
IL-1β ([2]; LPS 0.6 ng/ml, Indomethacin 7.2 ug/ml, Table 13): 4100 pg/mL
IL-1β ([2]; LPS 20 ng/ml, Indomethacin 0.72 ug/ml, Table 13): 6460 pg/mL
IL-1β ([2]; LPS 20 ng/ml, Indomethacin 7.2 ug/ml, Table 13): 6120 pg/mL
IL-1β ([2]; LTA 1.25 μg/ml, Indomethacin 0.72 ug/ml, Table 13): 7530 pg/mL
IL-1β ([2]; LTA 1.25 μg/ml, Indomethacin 7.2 ug/ml, Table 13): 8910 pg/mL
IL-1β ([2]; Medium, Indomethacin 0.72 ug/ml, Table 13): 10 pg/mL
IL-1β ([2]; Medium, Indomethacin 7.2 ug/ml, Table 13): 40 pg/mL
IL-10 ([3]; LPS 0.6 ng/ml, Indomethacin 0.72 ug/ml, Table 12): 37.3 pg/mL
IL-10 ([3]; LPS 0.6 ng/ml, Indomethacin 7.2 ug/ml, Table 12): 45.7 pg/mL
IL-10 ([3]; LPS 20 ng/ml, Indomethacin 0.72 ug/ml, Table 12): 108.0 pg/mL
IL-10 ([3]; LPS 20 ng/ml, Indomethacin 7.2 ug/ml, Table 12): 77.9 pg/mL
IL-10 ([3]; LTA 1.25 μg/ml, Indomethacin 0.72 ug/ml, Table 12): 84.9 pg/mL
IL-10 ([3]; LTA 1.25 μg/ml, Indomethacin 7.2 ug/ml, Table 12): 90.4 pg/mL
IL-10 ([3]; Medium, Indomethacin 0.72 ug/ml, Table 12): 0.0 pg/mL
IL-10 ([3]; Medium, Indomethacin 7.2 ug/ml, Table 12): 0.0 pg/mL

hBD1: human beta defensin 1, SEQ ID NO:1; prepared using chemical synthesis, Peptide Institute Inc. (DHYNCVSSGGQCLYSACPIFTKIQGTCYRGKAKCCK; ends and bridges not checked; cysteine pairing not given here; listed as Homo sapiens)
TNF [1, 4]: 474 pg/mL
TNF % of control [1, 4]: 65%
TNF [1, 5]: 203 pg/mL
TNF % of control [1, 5]: 28%
TNF [1, 6]: 91 pg/mL
TNF % of control [1, 6]: 13%
TNF [1, 7]: 1395 pg/mL
TNF % of control [1, 7]: 64%
TNF [1, 8]: 1311 pg/mL
TNF % of control [1, 8]: 61%
TNF [1, 9]: 999 pg/mL
TNF % of control [1, 9]: 46%
TNF [1, 10]: 1 pg/mL
TNF [1, 11]: 0 pg/mL
TNF [1, 12]: 0 pg/mL
IL-1β [2, 13]: 512 pg/mL
IL-1β % of control [2, 13]: 69%
IL-1β [2, 14]: 401 pg/mL
IL-1β % of control [2, 14]: 54%
IL-1β [2, 15]: 302 pg/mL
IL-1β % of control [2, 15]: 41%
IL-1β [2, 16]: 2087 pg/mL
IL-1β % of control [2, 16]: 82%
IL-1β [2, 17]: 1913 pg/mL
IL-1β % of control [2, 17]: 75%
IL-1β [2, 18]: 1599 pg/mL
IL-1β % of control [2, 18]: 63%
IL-1β [2, 19]: 0 pg/mL
IL-1β [2, 20]: 0 pg/mL
IL-1β [2, 21]: 0 pg/mL
IL-10 [3, 22]: 71 pg/mL
IL-10 % of control [3, 22]: 108%
IL-10 [3, 23]: 76 pg/mL
IL-10 % of control [3, 23]: 114%
IL-10 [3, 24]: 69 pg/mL
IL-10 % of control [3, 24]: 104%
IL-10 [3, 25]: 95 pg/mL
IL-10 % of control [3, 25]: 85%
IL-10 [3, 26]: 100 pg/mL
IL-10 % of control [3, 26]: 90%
IL-10 [3, 27]: 113 pg/mL
IL-10 % of control [3, 27]: 102%
IL-10 [3, 28]: 0 pg/mL
IL-10 [3, 29]: 0 pg/mL
IL-10 [3, 30]: 0 pg/mL

hBD3: human beta defensin 3, SEQ ID NO:3; prepared using chemical synthesis, Peptide Institute Inc. (GIINTLQKYYCRVRGGRCAVLSCLPKEEQTGKCSTRGRKCCRRKK; ends and bridges not checked; cysteine pairing not given here; listed as Homo sapiens)
TNF [1, 4]: 528 pg/mL
TNF % of control [1, 4]: 73%
TNF [1, 7]: 451 pg/mL
TNF % of control [1, 7]: 21%
TNF [1, 10]: 0 pg/mL
IL-1β [2, 13]: 331 pg/mL
IL-1β % of control [2, 13]: 45%
IL-1β [2, 16]: 568 pg/mL
IL-1β % of control [2, 16]: 22%
IL-1β [2, 19]: 0 pg/mL
IL-10 [3, 22]: 71 pg/mL
IL-10 % of control [3, 22]: 107%
IL-10 % of control [3, 25]: 137%
IL-10 [3, 28]: 0 pg/mL
toxicity to the cells (PBMC; 10 μg/ml and 40 μg/ml): toxic to the cells

hBD4 variant: consists of amino acids 3-39 of hBD4, SEQ ID NO:5; prepared using chemical synthesis (ELDRICGYGTARCRKKCRSQEYRIGRCPNTYACCLRK; hBD-4 variant consisting of amino acids 3-39 of SEQ ID NO4)
TNF [1, 4]: 468 pg/mL
TNF % of control [1, 4]: 64%
TNF [1, 5]: 211 pg/mL
TNF % of control [1, 5]: 29%
TNF [1, 7]: 778 pg/mL
TNF % of control [1, 7]: 36%
TNF [1, 8]: 139 pg/mL
TNF % of control [1, 8]: 6%
TNF [1, 10]: 0 pg/mL
TNF [1, 11]: 0 pg/mL
IL-1β [2, 13]: 286 pg/mL
IL-1β % of control [2, 13]: 39%
IL-1β [2, 14]: 163 pg/mL
IL-1β % of control [2, 14]: 22%
IL-1β [2, 16]: 1004 pg/mL
IL-1β % of control [2, 16]: 40%
IL-1β [2, 17]: 463 pg/mL
IL-1β % of control [2, 17]: 18%
IL-1β [2, 19]: 0 pg/mL
IL-1β [2, 20]: 0 pg/mL
IL-10 [3, 22]: 90 pg/mL
IL-10 % of control [3, 22]: 136%
IL-10 [3, 23]: 92 pg/mL
IL-10 % of control [3, 23]: 139%
IL-10 % of control [3, 25]: 157%
IL-10 [3, 26]: 187 pg/mL
IL-10 % of control [3, 26]: 168%
IL-10 [3, 28]: 0 pg/mL
IL-10 [3, 29]: 0 pg/mL
toxicity to the cells (PBMC; 40 μg/ml): toxic to the cells

rhBD2: recombinant hBD2, which is identical to hBD2 as used in Example 1 (GIGDPVTCLKSGAICHPVFCPRRYKQIGTCGLPGTKCCKKP; not fully specified; ends and bridges not checked; UniProt O15263 24-64, looked up)
TNF [1, 4]: 196 pg/mL
TNF % of control [1, 4]: 27%
TNF [1, 5]: 125 pg/mL
TNF % of control [1, 5]: 17%
TNF [1, 6]: 74 pg/mL
TNF % of control [1, 6]: 10%
TNF [1, 7]: 918 pg/mL
TNF % of control [1, 7]: 42%
TNF [1, 8]: 260 pg/mL
TNF % of control [1, 8]: 12%
TNF [1, 9]: 167 pg/mL
TNF % of control [1, 9]: 8%
TNF [1, 10]: 1 pg/mL
TNF [1, 11]: 0 pg/mL
TNF [1, 12]: 0 pg/mL
IL-1β [2, 13]: 284 pg/mL
IL-1β % of control [2, 13]: 38%
IL-1β [2, 14]: 214 pg/mL
IL-1β % of control [2, 14]: 29%
IL-1β [2, 15]: 124 pg/mL
IL-1β % of control [2, 15]: 17%
IL-1β [2, 16]: 1480 pg/mL
IL-1β % of control [2, 16]: 58%
IL-1β [2, 17]: 624 pg/mL
IL-1β % of control [2, 17]: 25%
IL-1β [2, 18]: 395 pg/mL
IL-1β % of control [2, 18]: 16%
IL-1β [2, 19]: 0 pg/mL
IL-1β [2, 20]: 0 pg/mL
IL-1β [2, 21]: 0 pg/mL
IL-10 [3, 22]: 72 pg/mL
IL-10 % of control [3, 22]: 108%
IL-10 [3, 23]: 103 pg/mL
IL-10 % of control [3, 23]: 155%
IL-10 [3, 24]: 108 pg/mL
IL-10 % of control [3, 24]: 162%
IL-10 [3, 25]: 126 pg/mL
IL-10 % of control [3, 25]: 113%
IL-10 [3, 26]: 243 pg/mL
IL-10 % of control [3, 26]: 218%
IL-10 [3, 27]: 281 pg/mL
IL-10 % of control [3, 27]: 252%
IL-10 [3, 28]: 0 pg/mL
IL-10 [3, 29]: 0 pg/mL
IL-10 [3, 30]: 0 pg/mL
